Measured values: ChEMBL document CHEMBL5465560, “Selectivity Literature for EUbOPEN Chemogenomic Library” (2024)
Values belong to the compound of their own block, whether it stands above or below them.

How the values were obtained:
[1] = molecular target: T1, Serine/threonine-protein kinase BRSK1 (Homo sapiens) (UniProt Q8TDC3); experiment: Selectivity interaction (Kinase panel (Z-LYTE Assay)) EUB0001632a BRSK1; conditions: at 10 µM
T1 sequence (whole entry): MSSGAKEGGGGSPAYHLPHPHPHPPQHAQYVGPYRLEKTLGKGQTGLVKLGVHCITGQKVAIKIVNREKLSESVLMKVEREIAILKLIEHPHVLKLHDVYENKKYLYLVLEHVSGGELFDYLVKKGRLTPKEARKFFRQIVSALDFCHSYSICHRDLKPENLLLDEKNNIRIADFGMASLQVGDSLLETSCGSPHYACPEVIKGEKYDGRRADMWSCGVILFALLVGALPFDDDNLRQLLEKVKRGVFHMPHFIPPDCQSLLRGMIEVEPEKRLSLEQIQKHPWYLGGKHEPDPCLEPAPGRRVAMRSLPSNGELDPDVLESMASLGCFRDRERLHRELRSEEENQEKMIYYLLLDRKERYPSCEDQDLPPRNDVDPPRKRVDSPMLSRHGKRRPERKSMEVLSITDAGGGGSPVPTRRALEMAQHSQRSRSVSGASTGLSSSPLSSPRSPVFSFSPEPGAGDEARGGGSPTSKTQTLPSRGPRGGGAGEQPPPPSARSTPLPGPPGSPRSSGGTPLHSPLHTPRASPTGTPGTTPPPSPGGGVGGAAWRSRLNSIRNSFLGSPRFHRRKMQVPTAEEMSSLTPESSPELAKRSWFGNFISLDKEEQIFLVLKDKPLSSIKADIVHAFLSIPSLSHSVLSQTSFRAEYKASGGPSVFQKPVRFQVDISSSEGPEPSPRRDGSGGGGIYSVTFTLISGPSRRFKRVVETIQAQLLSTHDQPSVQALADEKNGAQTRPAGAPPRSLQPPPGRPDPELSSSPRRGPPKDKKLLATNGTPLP

[2] = molecular target: T2, Alpha-2A adrenergic receptor (Homo sapiens) (UniProt P08913); experiment: Selectivity interaction (Eurofins CEREP Diversity Profile (receptors and ion channels)) EUB0000279b ADRA2A; conditions: at 10 µM
T2 sequence (whole entry): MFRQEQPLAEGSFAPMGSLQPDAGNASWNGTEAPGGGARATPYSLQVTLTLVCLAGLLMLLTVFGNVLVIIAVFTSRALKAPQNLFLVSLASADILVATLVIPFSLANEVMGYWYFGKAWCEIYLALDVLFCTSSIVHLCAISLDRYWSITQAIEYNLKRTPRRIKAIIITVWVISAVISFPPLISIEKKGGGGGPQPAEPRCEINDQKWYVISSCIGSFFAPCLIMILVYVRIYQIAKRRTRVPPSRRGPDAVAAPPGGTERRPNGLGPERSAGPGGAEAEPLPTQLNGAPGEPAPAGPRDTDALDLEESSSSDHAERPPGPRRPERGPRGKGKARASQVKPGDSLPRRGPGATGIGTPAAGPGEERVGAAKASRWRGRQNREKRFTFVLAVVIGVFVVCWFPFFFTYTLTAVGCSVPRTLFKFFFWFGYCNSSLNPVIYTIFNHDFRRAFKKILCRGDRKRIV

[3] = molecular target: Sodium-dependent noradrenaline transporter (Homo sapiens, UniProt P23975); experiment: Selectivity interaction (Eurofins CEREP Diversity Profile (receptors and ion channels)) EUB0000279b SLC6A2; conditions: at 10 µM
Sequence of Sodium-dependent noradrenaline transporter (P23975 whole entry): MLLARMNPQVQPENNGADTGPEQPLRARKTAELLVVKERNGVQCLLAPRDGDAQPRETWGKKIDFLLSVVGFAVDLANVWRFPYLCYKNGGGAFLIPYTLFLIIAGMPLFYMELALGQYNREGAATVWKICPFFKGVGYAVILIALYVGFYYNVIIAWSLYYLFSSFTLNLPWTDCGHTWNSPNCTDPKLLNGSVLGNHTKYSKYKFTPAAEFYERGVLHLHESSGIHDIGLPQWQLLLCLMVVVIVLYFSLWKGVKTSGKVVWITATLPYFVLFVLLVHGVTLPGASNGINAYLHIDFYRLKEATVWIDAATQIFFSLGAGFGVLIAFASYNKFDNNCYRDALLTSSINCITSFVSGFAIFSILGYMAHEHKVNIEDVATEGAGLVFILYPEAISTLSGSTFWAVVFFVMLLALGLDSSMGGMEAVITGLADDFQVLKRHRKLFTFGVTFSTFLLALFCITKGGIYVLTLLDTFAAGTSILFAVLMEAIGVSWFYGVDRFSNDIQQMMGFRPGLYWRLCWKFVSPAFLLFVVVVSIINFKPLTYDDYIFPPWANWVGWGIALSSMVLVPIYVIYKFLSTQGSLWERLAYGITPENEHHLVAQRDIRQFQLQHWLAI

[4] = molecular target: T3, Serine/threonine-protein kinase DCLK2 (Homo sapiens) (UniProt Q8N568); experiment: Selectivity interaction (KinomeScan (DiscoverX)) EUB0000666a DCLK2; conditions: at 10 µM
T3 sequence (whole entry): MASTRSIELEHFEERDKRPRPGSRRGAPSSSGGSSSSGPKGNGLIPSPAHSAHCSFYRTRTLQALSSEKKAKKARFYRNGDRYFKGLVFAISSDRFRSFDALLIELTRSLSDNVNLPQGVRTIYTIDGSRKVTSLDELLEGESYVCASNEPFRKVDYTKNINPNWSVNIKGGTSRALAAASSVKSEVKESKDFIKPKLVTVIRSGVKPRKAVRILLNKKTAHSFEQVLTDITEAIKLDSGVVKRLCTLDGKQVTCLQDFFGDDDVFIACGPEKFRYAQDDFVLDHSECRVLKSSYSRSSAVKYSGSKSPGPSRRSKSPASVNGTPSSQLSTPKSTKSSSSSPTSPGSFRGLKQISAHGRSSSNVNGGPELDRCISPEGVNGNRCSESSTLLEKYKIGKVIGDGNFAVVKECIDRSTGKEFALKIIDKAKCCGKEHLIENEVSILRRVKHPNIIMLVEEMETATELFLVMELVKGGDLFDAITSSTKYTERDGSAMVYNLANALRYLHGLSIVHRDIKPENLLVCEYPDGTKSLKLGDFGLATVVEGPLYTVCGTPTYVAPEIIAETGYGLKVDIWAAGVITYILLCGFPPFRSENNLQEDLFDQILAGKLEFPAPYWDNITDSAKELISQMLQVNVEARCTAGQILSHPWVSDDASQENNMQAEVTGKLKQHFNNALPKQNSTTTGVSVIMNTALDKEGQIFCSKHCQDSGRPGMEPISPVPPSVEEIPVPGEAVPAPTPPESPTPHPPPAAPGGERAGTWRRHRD

[5] = molecular target: Sigma non-opioid intracellular receptor 1 (Homo sapiens) (UniProt Q99720); experiment: Selectivity interaction (GPCR panel (PDSP screen)) EUB0000311b SIGMAR1; conditions: at 10 µM
Sequence of Sigma non-opioid intracellular receptor 1 (Homo sapiens) (Q99720 whole entry): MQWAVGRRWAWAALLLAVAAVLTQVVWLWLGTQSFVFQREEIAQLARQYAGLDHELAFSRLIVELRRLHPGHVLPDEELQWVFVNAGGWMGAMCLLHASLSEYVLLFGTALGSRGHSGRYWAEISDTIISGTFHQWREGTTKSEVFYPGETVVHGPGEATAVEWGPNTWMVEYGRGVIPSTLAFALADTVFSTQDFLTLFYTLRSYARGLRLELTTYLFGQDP

[6] = molecular target: BMP-2-inducible protein kinase (Homo sapiens) (UniProt Q9NSY1); experiment: Selectivity interaction (KINOMEscan (DiscoverX)) EUB0001868a BMP2K; conditions: at 1 µM
Sequence of BMP-2-inducible protein kinase (Homo sapiens) (Q9NSY1 whole entry, looked up): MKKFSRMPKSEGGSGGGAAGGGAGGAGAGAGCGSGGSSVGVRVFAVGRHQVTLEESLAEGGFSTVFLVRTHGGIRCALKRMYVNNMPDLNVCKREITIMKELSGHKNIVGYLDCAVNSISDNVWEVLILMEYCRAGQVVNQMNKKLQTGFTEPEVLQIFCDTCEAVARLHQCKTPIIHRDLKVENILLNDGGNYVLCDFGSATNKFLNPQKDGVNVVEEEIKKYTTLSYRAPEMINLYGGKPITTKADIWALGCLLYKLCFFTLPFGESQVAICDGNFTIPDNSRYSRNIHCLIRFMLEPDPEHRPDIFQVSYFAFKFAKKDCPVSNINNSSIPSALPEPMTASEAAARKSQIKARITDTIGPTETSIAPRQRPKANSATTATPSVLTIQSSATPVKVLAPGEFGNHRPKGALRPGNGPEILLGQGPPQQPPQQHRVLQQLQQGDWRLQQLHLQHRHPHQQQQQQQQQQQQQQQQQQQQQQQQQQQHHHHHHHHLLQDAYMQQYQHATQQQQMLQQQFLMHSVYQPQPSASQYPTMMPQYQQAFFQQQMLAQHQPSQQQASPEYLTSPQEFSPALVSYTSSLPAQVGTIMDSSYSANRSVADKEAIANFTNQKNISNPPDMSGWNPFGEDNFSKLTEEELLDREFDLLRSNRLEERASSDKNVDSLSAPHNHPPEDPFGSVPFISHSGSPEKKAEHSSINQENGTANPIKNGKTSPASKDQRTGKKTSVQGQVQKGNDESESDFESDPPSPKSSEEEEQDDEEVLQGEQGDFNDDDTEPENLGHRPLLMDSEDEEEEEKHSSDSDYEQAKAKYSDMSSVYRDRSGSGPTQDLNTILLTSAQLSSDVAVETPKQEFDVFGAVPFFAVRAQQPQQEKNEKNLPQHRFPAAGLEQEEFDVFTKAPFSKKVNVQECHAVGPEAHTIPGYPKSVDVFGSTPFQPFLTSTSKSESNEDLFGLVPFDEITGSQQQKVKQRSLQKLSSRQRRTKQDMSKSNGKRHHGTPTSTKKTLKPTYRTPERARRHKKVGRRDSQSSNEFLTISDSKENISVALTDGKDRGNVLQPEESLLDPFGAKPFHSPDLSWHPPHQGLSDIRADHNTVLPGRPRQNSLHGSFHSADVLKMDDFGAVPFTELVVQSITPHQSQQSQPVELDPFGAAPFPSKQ

[7] = molecular target: Serine/threonine-protein kinase MARK1 (Homo sapiens) (UniProt Q9P0L2); experiment: Selectivity interaction (SelectScreen profiling (Invitrogen)) EUB0000607a MARK1; conditions: at 2 µM
Sequence of Serine/threonine-protein kinase MARK1 (Homo sapiens) (Q9P0L2 whole entry, looked up): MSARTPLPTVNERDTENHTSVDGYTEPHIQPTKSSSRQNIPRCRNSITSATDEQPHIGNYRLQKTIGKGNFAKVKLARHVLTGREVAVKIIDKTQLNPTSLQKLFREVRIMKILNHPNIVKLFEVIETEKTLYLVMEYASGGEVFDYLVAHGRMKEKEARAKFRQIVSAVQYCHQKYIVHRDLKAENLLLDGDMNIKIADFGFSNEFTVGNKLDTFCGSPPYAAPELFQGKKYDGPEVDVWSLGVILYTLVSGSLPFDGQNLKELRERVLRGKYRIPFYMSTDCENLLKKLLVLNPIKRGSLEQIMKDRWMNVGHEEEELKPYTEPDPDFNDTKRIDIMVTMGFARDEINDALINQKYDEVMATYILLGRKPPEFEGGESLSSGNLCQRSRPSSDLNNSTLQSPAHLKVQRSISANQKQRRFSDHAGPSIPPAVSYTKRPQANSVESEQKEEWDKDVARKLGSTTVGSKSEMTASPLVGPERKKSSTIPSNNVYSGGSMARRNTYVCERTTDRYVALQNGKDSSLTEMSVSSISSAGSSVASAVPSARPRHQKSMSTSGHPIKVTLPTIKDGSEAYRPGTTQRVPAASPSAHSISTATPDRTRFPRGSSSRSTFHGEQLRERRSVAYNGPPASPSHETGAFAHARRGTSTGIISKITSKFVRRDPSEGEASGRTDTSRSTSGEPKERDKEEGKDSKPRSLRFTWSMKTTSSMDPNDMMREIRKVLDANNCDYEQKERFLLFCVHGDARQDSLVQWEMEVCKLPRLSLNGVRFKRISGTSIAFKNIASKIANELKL

[8] = molecular target: Serine/threonine-protein kinase PAK 2 (Homo sapiens) (UniProt Q13177); experiment: Selectivity interaction (Upstate Kinase Profiler service (Millipore)) EUB0000056c PAK2; conditions: at 1 µM
[9] = molecular target: Protein kinase C gamma type (Homo sapiens) (UniProt P05129); experiment: Selectivity interaction (Upstate Kinase Profiler service (Millipore)) EUB0000056c PRKCG; conditions: at 1 µM
[10] = molecular target: Serine/threonine-protein kinase Nek4 (Homo sapiens) (UniProt P51957); experiment: Selectivity interaction (KinomeScan (DiscoverX)) EUB0001049a NEK4; conditions: at 1 µM
[11] = molecular target: STE20-like serine/threonine-protein kinase (Homo sapiens, UniProt Q9H2G2); experiment: Selectivity interaction (KinomeScan (DiscoverX)) EUB0000655a SLK; conditions: at 10 µM
Sequence of STE20-like serine/threonine-protein kinase (Q9H2G2 whole entry, looked up): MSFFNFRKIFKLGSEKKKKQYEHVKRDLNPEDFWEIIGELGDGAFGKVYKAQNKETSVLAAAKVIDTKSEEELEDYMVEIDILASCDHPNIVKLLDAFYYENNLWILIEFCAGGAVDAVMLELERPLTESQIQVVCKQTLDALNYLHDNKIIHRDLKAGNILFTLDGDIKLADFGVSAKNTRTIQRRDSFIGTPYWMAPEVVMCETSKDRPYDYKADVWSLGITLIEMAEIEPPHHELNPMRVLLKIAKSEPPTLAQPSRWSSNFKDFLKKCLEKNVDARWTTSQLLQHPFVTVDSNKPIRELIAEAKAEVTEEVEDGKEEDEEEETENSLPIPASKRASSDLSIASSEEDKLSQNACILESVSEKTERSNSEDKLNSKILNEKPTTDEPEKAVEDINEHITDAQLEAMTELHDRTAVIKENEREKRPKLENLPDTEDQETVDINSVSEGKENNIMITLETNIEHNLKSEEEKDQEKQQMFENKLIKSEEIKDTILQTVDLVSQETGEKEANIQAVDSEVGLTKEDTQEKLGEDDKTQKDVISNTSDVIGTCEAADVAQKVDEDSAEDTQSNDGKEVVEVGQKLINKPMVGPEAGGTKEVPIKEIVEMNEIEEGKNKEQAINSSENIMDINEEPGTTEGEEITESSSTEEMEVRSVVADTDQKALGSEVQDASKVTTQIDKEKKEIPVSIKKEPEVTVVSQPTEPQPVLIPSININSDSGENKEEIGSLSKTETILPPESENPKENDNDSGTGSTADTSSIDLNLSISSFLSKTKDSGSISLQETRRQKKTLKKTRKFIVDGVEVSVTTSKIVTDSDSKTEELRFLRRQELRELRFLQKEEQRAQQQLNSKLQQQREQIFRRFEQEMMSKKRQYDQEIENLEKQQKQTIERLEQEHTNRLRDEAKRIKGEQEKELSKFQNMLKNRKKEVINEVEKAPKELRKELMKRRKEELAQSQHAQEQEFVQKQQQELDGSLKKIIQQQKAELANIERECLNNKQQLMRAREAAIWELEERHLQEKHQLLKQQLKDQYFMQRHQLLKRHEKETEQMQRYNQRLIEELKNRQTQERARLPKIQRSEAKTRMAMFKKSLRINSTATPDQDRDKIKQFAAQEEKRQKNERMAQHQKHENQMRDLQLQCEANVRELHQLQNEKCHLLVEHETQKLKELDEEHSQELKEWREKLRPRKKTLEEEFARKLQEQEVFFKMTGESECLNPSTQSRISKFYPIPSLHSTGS

[12] = molecular target: Proto-oncogene tyrosine-protein kinase Src (Homo sapiens, UniProt P12931); experiment: Selectivity interaction (KinomeScan (DiscoverX)) EUB0000045b SRC
Sequence of Proto-oncogene tyrosine-protein kinase Src (P12931 2-536 limits assumed): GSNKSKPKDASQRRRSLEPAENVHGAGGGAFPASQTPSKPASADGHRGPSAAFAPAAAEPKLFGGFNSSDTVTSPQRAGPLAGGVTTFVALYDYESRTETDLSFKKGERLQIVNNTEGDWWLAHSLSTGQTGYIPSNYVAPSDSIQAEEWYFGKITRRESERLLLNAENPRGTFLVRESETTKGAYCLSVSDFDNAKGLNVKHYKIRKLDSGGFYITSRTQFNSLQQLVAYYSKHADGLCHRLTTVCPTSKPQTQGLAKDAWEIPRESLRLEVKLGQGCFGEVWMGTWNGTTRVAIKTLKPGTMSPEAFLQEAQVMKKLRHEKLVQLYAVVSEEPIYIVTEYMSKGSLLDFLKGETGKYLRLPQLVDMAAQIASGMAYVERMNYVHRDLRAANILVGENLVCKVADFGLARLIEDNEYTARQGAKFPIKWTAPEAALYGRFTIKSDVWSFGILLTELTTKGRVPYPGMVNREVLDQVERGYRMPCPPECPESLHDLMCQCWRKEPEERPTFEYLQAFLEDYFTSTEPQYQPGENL

[13] = molecular target: Histone-lysine N-methyltransferase SETD2 (Homo sapiens) (UniProt Q9BYW2); conditions: at 10 µM
[14] = molecular target: Cyclin-dependent kinase 16 (Homo sapiens) (UniProt Q00536); experiment: Selectivity interaction (KinomeScan (DiscoverX)) EUB0001619a CDK16; conditions: at 1 µM
Sequence of Cyclin-dependent kinase 16 (Homo sapiens) (Q00536 whole entry): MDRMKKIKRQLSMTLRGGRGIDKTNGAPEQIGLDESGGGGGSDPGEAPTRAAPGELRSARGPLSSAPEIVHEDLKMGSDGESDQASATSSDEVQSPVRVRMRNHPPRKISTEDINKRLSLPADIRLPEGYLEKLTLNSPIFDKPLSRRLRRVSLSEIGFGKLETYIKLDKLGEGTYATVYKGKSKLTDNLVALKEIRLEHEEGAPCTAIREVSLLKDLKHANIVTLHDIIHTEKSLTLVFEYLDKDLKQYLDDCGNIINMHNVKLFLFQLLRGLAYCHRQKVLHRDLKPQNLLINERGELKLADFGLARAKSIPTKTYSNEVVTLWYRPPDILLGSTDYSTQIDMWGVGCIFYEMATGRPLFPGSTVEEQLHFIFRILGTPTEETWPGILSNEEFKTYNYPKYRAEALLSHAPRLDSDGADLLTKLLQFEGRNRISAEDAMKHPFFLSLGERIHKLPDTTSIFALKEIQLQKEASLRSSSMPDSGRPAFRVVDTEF

% of control [1]: 11.9%
Structure (SMILES): Cn1cc(-n2cnc3c(NCc4nc5cc(Cl)c(Cl)cc5[nH]4)nc(N4CCOCC4)nc32)cn1

% of control [2]: 100% | % of control [3]: 90%
Structure (SMILES): CC(=O)c1cc(-c2ccccc2OCC2CC2)c2ncccn12

Structure (SMILES): O=C(NOC[C@H](O)CO)c1ccc(F)c(F)c1Nc1ccc(I)cc1F
% of control [4]: 100%

% of inhibition [5]: 30.5%
Structure (SMILES): CCc1ccccc1C(=O)Nc1n[nH]c2c(C)c(F)c(C3C(C#N)=C(C)N(C)C(C)=C3C#N)cc12 [BAY-3827]

% of control [6]: 18%
Structure (SMILES): Cc1cc(-c2ccnc(Nc3cnn(C)c3)n2)ccc1CNC(=O)N1CC(OC(C)C)C1

Structure (SMILES): CNC(=O)Nc1ccc(-c2nc(N3CC4CCC(C3)O4)c3cnn(C4CCC5(CC4)OCCO5)c3n2)cc1
% of inhibition [7]: 13%

% of inhibition [8]: 37% | % of inhibition [9]: 17%
Structure (SMILES): Cc1ccc(-c2ccc3c(ccc4sc5c(c43)NC[C@@H](C)NC5=O)n2)cn1

Structure (SMILES): COc1cc(Nc2nc(C)cc(-c3cnn4nc(OC)ccc34)n2)cc(C(F)(F)F)c1
% of control [10]: 90%

Structure (SMILES): CN(C)CCOc1ccc(-c2nc(-c3ccncc3)c(-c3ccc4c(c3)CC/C4=N\O)[nH]2)cc1
% of control [11]: 1.3%

Structure (SMILES): C=CC(=O)Nc1cc(-n2c(=O)ccc3cnc4ccc(-c5ccc(NS(C)(=O)=O)cc5)cc4c32)ccc1C
% of control ([12]; at 1 µM): 92% | % of control ([12]; at 10 µM): 100%

% activity [13]: > 90%
Structure (SMILES): CNCCN1CCC(c2cc(CN(C)C(=O)c3cccc(Oc4ccccc4)c3)ccn2)CC1

Structure (SMILES): N#Cc1cccc(-c2c[nH]c3ncnc(N4CCOCC4)c23)c1
% of control [14]: 90%
